Patent US9527853B2, “Fused triazole derivatives as gamma secretase modulators” (Ares Trading S.A., priority 2012, dated 2016)

How the values were obtained:
[1] = system: Aβ42; experiment: Amyloidβ peptide release (Aβ42) assay, AlphaLisa on supernatant of APPswe-HEK cells; assay type: cell-based; details: Homo sapiens, 24 hours incubation with compound, read-out: Ab42 IC50 Ranges
Procedure: (§1) Amyloidβ Peptide Release (Aβ42 & AβTotal) Assay to Determine IC50 Values.
(§2) Amyloidβ peptide release (Aβ42 & AβTotal) assay are performed in 384 well microtiter plates (Perkin Elmer AlphaPlate #6008350) in a final volume of 20 μl, using supernatant coming from APPswe-HEK cells exposed to test compounds. Compounds are dissolved in and diluted in 100% DMSO and incubated with APPswe-HEK cells for 24 hours a 37° C. in 5% CO2. The supernatant from APPswe-HEK cells are mixed with antibodies: for Aβ42 detection: AlphaLisa Amyloid β 1-42 Kit (Perkin Elmer AL203L) Anti-Amyloid β1-42-specific antibody acceptor beads, biotinylated anti-Amyloid “β1-42” antibody and streptavidin (SA) donor beads diluted in AlphaLisa buffer (to the instructions of the supplier). For Aβ total detection: Custom Anti-Amyloid βtotal acceptor beads (6E10 acceptor beads), biotinylated anti-Amyloid “β1-42” antibody (Perkin Elmer AL203L) and streptavidin (SA) donor beads diluted in AlphaLisa buffer (to the instructions of the supplier). After addition of supernatant to the antibody mix, the assay is incubated 4 h and 30 minutes. AmyloidP peptide release (Aβ42 & AβTotal) is measured with a Pherastar FS (BMG) multimode reader using the alphascreen module.

[2] = system: AβTotal; experiment: Amyloidβ peptide release (AβTotal) assay, AlphaLisa on supernatant of APPswe-HEK cells; assay type: cell-based, human; details: 24 hours, ratio Abtot versus Ab42
Procedure: as §1, §2

| SMILES | IC50 [1] [nM] | Abtot/Ab42 selectivity ranges [2] |
| --- | --- | --- |
| COc1nc(NC(=O)c2nnn3c2CCC3c2ccc(Cl)cc2)ccc1-n1cnc(C)c1 (stereo not shown) [Example 29, 6-(4-chlorophenyl)-N-(6-methoxy-5-(4-methyl-1H-imidazol-1-yl)pyridin-2-yl)-5,6-dihydro-4H-pyrrolo[1,2-c][1,2,3]triazole-3-carboxamide] | < 1000 | a (a: selectivity ≧ 100 fold) |
| COc1cc(NC(=O)c2nnn3c2CCC3c2ccccc2Cl)ccc1-c1cnn(C)c1 (stereo not shown) [Example 33, 6-(2-chlorophenyl)-N-(3-methoxy-4-(1-methyl-1H-pyrazol-4-yl)phenyl)-5,6-dihydro-4H-pyrrolo[1,2-c][1,2,3]triazole-3-carboxamide] | 500 to 1000 | c (c: 50 fold > selectivity ≧ 10 fold) |
| COc1cc(NC(=O)c2nnn3c2CCC3c2ccc(F)cc2)ccc1-n1cnc(C)c1 (stereo not shown) [Example 36, 6-(4-fluorophenyl)-N-(3-methoxy-4-(4-methyl-1H-imidazol-1-yl)phenyl)-5,6-dihydro-4H-pyrrolo[1,2-c][1,2,3]triazole-3-carboxamide] | 150 to 500 | b (b: 100 fold > selectivity ≧ 50 fold) |
| COc1cc(NC(=O)c2nnn3c2CCC3c2ccc(F)cc2)ccc1-c1cnn(C)c1 (stereo not shown) [Example 37, 6-(4-fluorophenyl)-N-(3-methoxy-4-(1-methyl-1H-pyrazol-4-yl)phenyl)-5,6-dihydro-4H-pyrrolo[1,2-c][1,2,3]triazole-3-carboxamide] | < 1000 | c (c: 50 fold > selectivity ≧ 10 fold) |
| COc1cc(NC(=O)c2nnn3c2COCC3c2ccc(Cl)cc2)ccc1-n1cnc(C)c1 (stereo not shown) [Example 38, 7-(4-chlorophenyl)-N-(3-methoxy-4-(4-methyl-1H-imidazol-1-yl)phenyl)-6,7-dihydro-4H-[1,2,3]triazolo[5,1-c][1,4]oxazine-3-carboxamide] | 150 to 500 | b (b: 100 fold > selectivity ≧ 50 fold) |
| COc1cc(C(=O)Nc2nnn3c2CCCC3c2ccc(F)cc2Cl)ccc1-n1cnc(C)c1 (stereo not shown) [Example 39, N-(7-(2-chloro-4-fluorophenyl)-4,5,6,7-tetrahydro-[1,2,3]triazolo[1,5-a]pyridin-3-yl)-3-methoxy-4-(4-methyl-1H-imidazol-1-yl)benzamide] | 150 to 500 | b (b: 100 fold > selectivity ≧ 50 fold) |
| COc1cc(C(=O)Nc2nnn3c2CCCC3c2ccc(Cl)cc2)ccc1-n1cnc(C)c1 (stereo not shown) [Example 40, N-(7-(4-chlorophenyl)-4,5,6,7-tetrahydro-[1,2,3]triazolo[1,5-a]pyridin-3-yl)-3-methoxy-4-(4-methyl-1H-imidazol-1-yl)benzamide] | 150 to 500 | b (b: 100 fold > selectivity ≧ 50 fold) |
| COc1cc(C(=O)Nc2nnn3c2CCCC3c2ccc(Cl)c(Cl)c2)ccc1-n1cnc(C)c1 (stereo not shown) [Example 41, N-(7-(3,4-dichlorophenyl)-4,5,6,7-tetrahydro-[1,2,3]triazolo[1,5-a]pyridin-3-yl)-3-methoxy-4-(4-methyl-1H-imidazol-1-yl)benzamide] | 150 to 500 | b (b: 100 fold > selectivity ≧ 50 fold) |
| COc1cc(C(=O)Nc2nnn3c2CCCC3c2cccc(C(F)(F)F)c2)ccc1-n1cnc(C)c1 (stereo not shown) [Example 42, 3-methoxy-4-(4-methyl-1H-imidazol-1-yl)-N-(7-(3-(trifluoromethyl)phenyl)-4,5,6,7-tetrahydro-[1,2,3]triazolo[1,5-a]pyridin-3-yl)benzamide] | 500 to 1000 | c (c: 50 fold > selectivity ≧ 10 fold) |
| COc1cc(C(=O)Nc2nnn3c2CCCC3c2ccc(F)cc2)ccc1-n1cnc(C)c1 (stereo not shown) [Example 43, N-(7-(4-fluorophenyl)-4,5,6,7-tetrahydro-[1,2,3]triazolo[1,5-a]pyridin-3-yl)-3-methoxy-4-(4-methyl-1H-imidazol-1-yl)benzamide] | < 1000 | a (a: selectivity ≧ 100 fold) |
| COc1cc(C(=O)Nc2nnn3c2CCC3c2ccc(Cl)cc2)ccc1-n1cnc(C)c1 (stereo not shown) [Example 44, N-(6-(4-chlorophenyl)-5,6-dihydro-4H-pyrrolo[1,2-c][1,2,3]triazol-3-yl)-3-methoxy-4-(4-methyl-1H-imidazol-1-yl)benzamide] | 150 to 500 | c (c: 50 fold > selectivity ≧ 10 fold) |
| COc1cc(C(=O)Nc2nnn3c2CCC3c2ccc(Cl)c(Cl)c2)ccc1-n1cnc(C)c1 (stereo not shown) [Example 45] | 150 to 500 | c (c: 50 fold > selectivity ≧ 10 fold) |
| COc1cc(C(=O)Nc2nnn3c2CCC3c2ccc(F)cc2)ccc1-n1cnc(C)c1 (stereo not shown) [Example 46, N-(6-(4-fluorophenyl)-5,6-dihydro-4H-pyrrolo[1,2-c][1,2,3]triazol-3-yl)-3-methoxy-4-(4-methyl-1H-imidazol-1-yl)benzamide] | 500 to 1000 | c (c: 50 fold > selectivity ≧ 10 fold) |
| COc1cc(C(=O)Nc2nnn3c2CCC3c2ccc(F)cc2)ccc1-c1ccnc(C)c1 (stereo not shown) [Example 47, N-(6-(4-fluorophenyl)-5,-dihydro-4H-pyrrolo[1,2-c][1,2,3]triazol-3-yl)-3-methoxy-4-(2-methylpyridin-4-yl)benzamide] | < 1000 | d (d: 10 fold > selectivity) |
| COc1cc(N(C)C(=O)c2nnn3c2CCCC3c2ccc(Cl)cc2)ccc1-n1cnc(C)c1 (stereo not shown) [Example 48, 7-(4-chlorophenyl)-N-(3-methoxy-4-(4-methyl-1H-imidazol-1-yl)phenyl)-N-methyl-4,5,6,7-tetrahydro-[1,2,3]triazolo[1,5-a]pyridine-3-carboxamide] | < 1000 | a (a: selectivity ≧ 100 fold) |

Further lines, with some results ahead:

| IC50 [1] [nM] | SMILES | Abtot/Ab42 selectivity ranges [2] |
| --- | --- | --- |
| 150 to 500 | Cc1cn(-c2ccc(NC(=O)c3nnn4c3CCC4c3ccc(Cl)cc3)cc2F)cn1 (stereo not shown) [Example 26, 6-(4-chlorophenyl)-N-(3-fluoro-4-(4-methyl-1H-imidazol-1-yl)phenyl)-5,6-dihydro-4H-pyrrolo[1,2-c][1,2,3]triazole-3-carboxamide] | b (b: 100 fold > selectivity ≧ 50 fold) |
| 150 to 500 | Cc1cn(-c2ccc(NC(=O)c3nnn4c3CCC4c3ccc(Cl)cc3)cc2C#N)cn1 (stereo not shown) [Example 27, 6-(4-chlorophenyl)-N-(3-cyano-4-(4-methyl-1H-imidazol-1-yl)phenyl)-5,6-dihydro-4H-pyrrolo[1,2-c][1,2,3]triazole-3-carboxamide] | c (c: 50 fold > selectivity ≧ 10 fold) |
| ≤ 150 | COc1cc(NC(=O)c2nnn3c2CCC3c2ccc(Cl)cc2)ccc1-n1cnc(C)c1 (stereo not shown) [Example 28, 6-(4-chlorophenyl)-N-(3-methoxy-4-(4-methyl-1H-imidazol-1-yl)phenyl)-5,6-dihydro-4H-pyrrolo[1,2-c][1,2,3]triazole-3-carboxamide] | b (b: 100 fold > selectivity ≧ 50 fold) |
| ≤ 150 | COc1cc(NC(=O)c2nnn3c2CC[C@@H]3c2ccc(Cl)cc2)ccc1-n1cnc(C)c1 [Example 30, (R)-6-(4-chlorophenyl)-N-(3-methoxy-4-(4-methyl-1H-imidazol-1-yl)phenyl)-5,6-dihydro-4H-pyrrolo[1,2-c][1,2,3]triazole-3-carboxamide] | b (b: 100 fold > selectivity ≧ 50 fold) |
| 150 to 500 | COc1cc(NC(=O)c2nnn3c2CC[C@H]3c2ccc(Cl)cc2)ccc1-n1cnc(C)c1 [Example 31, (S)-6-(4-chlorophenyl)-N-(3-methoxy-4-(4-methyl-1H-imidazol-1-yl)phenyl)-5,6-dihydro-4H-pyrrolo[1,2-c][1,2,3]triazole-3-carboxamide] | c (c: 50 fold > selectivity ≧ 10 fold) |
| ≤ 150 | COc1cc(NC(=O)c2nnn3c2CCC3c2ccccc2Cl)ccc1-n1cnc(C)c1 (stereo not shown) [Example 32, 6-(2-chlorophenyl)-N-(3-methoxy-4-(4-methyl-1H-imidazol-1-yl)phenyl)-5,6-dihydro-4H-pyrrolo[1,2-c][1,2,3]triazole-3-carboxamide] | b (b: 100 fold > selectivity ≧ 50 fold) |
| ≤ 150 | COc1cc(NC(=O)c2nnn3c2CCC3c2ccc(Cl)c(Cl)c2)ccc1-n1cnc(C)c1 (stereo not shown) [Example 34, 6-(3,4-dichlorophenyl)-N-(3-methoxy-4-(4-methyl-1H-imidazol-1-yl)phenyl)-5,6-dihydro-4H-pyrrolo[1,2-c][1,2,3]triazole-3-carboxamide] | a (a: selectivity ≧ 100 fold) |
| 150 to 500 | COc1cc(NC(=O)c2nnn3c2CCC3c2ccc(Cl)c(Cl)c2)ccc1-c1cnn(C)c1 (stereo not shown) [Example 35, 6-(3,4-dichlorophenyl)-N-(3-methoxy-4-(1-methyl-1H-pyrazol-4-yl)phenyl)-5,6-dihydro-4H-pyrrolo[1,2-c][1,2,3]triazole-3-carboxamide] | c (c: 50 fold > selectivity ≧ 10 fold) |
